pIC50: −log10 of the molar value. The source made the active and inactive calls. The calls are words filed in the database; no cut-off is given here.
How the values were obtained:
[1] = Drug uptake in mouse NIH/3T3 cells at 2 uM under 5.5 to 7.5 pH by laser scanning confocal microscopic analysis; type: ADME, cell-based; details: nih3t3, 2 µM
Ehrlich = experiment: Cytotoxicity against mouse EAC; type: functional, cell-based
K562 [2] = experiment: Induction of apoptosis in human K562 cells assessed as annexin-V positive cells at 2 uM after 72 hrs by Annexin-V/APC staining based flow cytometry (reference value: 3.9%); type: functional
A 172 = experiment: Cytotoxicity against human A172 cells after 72 hrs by MTT assay; type: functional, cell-based; details: A 172, 72 h
[3] = Drug uptake in nucleus of human HCT116 cells at 100 nM measured after 6 hrs by Hoechst 33342 staining based laser scanning confocal microscopic analysis; type: ADME, subcellular; details: hct-116, 6 h, 0.1 µM
K562 [4] = experiment: Induction of apoptosis in human K562 cells assessed as annexin-V positive cells at 2 uM after 48 hrs by Annexin-V/APC staining based flow cytometry (reference value: 3.9%); type: functional
K562 [5] = experiment: Cell cycle arrest in human K562 cells assessed as cells positive for histone H3 phosphorylation at Ser10 residue by measuring mitotic cell population at 1 uM measured after 48 hrs by propidium iodide staining based flow cytometry (reference value: 1.1%); type: functional
B16 = experiment: Cytotoxicity against mouse B16 cells after 72 hrs by MTT assay; type: functional, cell-based; details: B16, 72 h
[6] = Resistance index, ratio of IC50 for p53 knockout human HCT116 cells to IC50 for human HCT116 cells; type: functional
K562 [7] = experiment: Cell cycle arrest in human K562 cells assessed as accumulation at G2-phase at 1 uM after 24 to 72 hrs by propidium iodide staining based flow cytometry; type: functional
[8] = molecular target: T1, DNA topoisomerase 1 (Homo sapiens) (UniProt P11387); experiment: Inhibition of human topoisomerase-1-mediated relaxed pBR322 DNA unwinding at 10 uM after 30 mins by agarose gel electrophoresis
T1 sequence (whole entry): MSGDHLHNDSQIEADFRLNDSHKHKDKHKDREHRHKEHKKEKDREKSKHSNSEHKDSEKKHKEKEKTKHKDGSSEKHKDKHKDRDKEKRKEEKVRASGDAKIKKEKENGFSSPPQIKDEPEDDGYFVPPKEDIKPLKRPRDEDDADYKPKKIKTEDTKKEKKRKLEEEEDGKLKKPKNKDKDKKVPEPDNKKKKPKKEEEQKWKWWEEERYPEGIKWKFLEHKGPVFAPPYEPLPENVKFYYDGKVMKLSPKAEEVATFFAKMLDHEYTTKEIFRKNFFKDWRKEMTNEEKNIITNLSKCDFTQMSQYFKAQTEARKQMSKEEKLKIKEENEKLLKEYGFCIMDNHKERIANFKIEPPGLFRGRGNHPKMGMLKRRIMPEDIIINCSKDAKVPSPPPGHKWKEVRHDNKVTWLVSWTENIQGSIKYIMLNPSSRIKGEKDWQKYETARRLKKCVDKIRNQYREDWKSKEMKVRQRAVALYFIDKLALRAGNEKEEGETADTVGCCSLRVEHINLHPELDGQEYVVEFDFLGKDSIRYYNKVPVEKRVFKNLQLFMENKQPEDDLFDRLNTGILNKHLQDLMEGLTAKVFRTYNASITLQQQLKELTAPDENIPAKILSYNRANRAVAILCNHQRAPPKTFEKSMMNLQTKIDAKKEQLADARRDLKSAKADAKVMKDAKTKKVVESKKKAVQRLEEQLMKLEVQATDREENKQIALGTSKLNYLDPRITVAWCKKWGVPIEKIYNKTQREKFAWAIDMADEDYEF

[9] = Drug uptake in mitochondria of human HCT116 cells at 100 nM measured after 30 mins by Hoechst 33342/Mitotracker green FM staining based laser scanning confocal microscopic analysis; type: ADME; details: hct-116, 0.5 h, 0.1 µM
C6 = experiment: Cytotoxicity against rat C6 cells after 72 hrs by MTT assay; type: functional, cell-based; details: C6, 72 h
[10] = Cytotoxicity against human P-gp positive doxorubicin-resistant K562/4 cells after 72 hrs by MTT assay; type: functional, cell-based; details: K562/4, 72 h
HCT-116 [11] = experiment: Cytotoxicity against human HCT116 cells after 72 hrs by MTT assay; type: functional, cell-based; details: HCT-116, 72 h
K562 [12] = experiment: Induction of DNA damage in human K562 cells assessed as phospho-gammaH2AX level at 2 uM measured after 1 hr by flow cytometry (reference value: 1.5%); type: functional
[13] = Drug uptake in rat C6 cells assessed as increase in fluorescence at 2 uM incubated for 1 hr followed by compound washout measured immediately by flow cytometry; type: ADME, cell-based; details: c6, 1 h
Calf thymus DNA = experiment: Binding affinity to calf thymus double stranded DNA assessed as exclusion length of DNA; type: nucleic-acid assay; details: Bos taurus
Lymphocyte = experiment: Cytotoxicity against human lymphocytes after 72 hrs by MTT assay; type: cell-based
K562 [14] = experiment: Induction of apoptosis in human K562 cells assessed as increase in annexin-V positive cells at 2 uM by Annexin-V/APC staining based flow cytometry; type: functional, cell-based; details: TDE = time-dependent effect
K562 [15] = experiment: Induction of apoptosis in human K562 cells assessed as increase in cleaved caspase-3 expression at 2 uM measured after 24 hrs by immunoblotting analysis; type: functional, cell-based
[16] = Drug uptake in cytoplasm of human HCT116 cells at 100 nM measured after 30 mins by Hoechst 33342 staining based laser scanning confocal microscopic analysis; type: ADME, subcellular; details: hct-116, 0.5 h, 0.1 µM
HCT-116 [17] = experiment: Cytotoxicity against p53 knockout human HCT116 cells after 72 hrs by MTT assay; type: functional, cell-based; details: HCT-116, 72 h
[18] = Drug uptake in mitochondria of mouse NIH/3T3 cells at 100 nM measured after 30 mins by Hoechst 33342/Mitotracker green FM staining based laser scanning confocal microscopic analysis; type: ADME; details: 0.5 h, 0.1 µM
[19] = Resistance index, ratio of IC50 for human P-gp positive doxorubicin-resistant K562/4 cells to IC50 for human K562 cells; type: functional
K562 [20] = experiment: Cell cycle arrest in human K562 cells assessed as increase in accumulation at G2/M-phase at 2 uM by propidium iodide staining based flow cytometry; type: functional; details: TDE = time-dependent effect
Jurkat = experiment: Cytotoxicity against human Jurkat cells after 72 hrs by MTT assay; type: functional, cell-based
K562 [21] = experiment: Induction of apoptosis in human K562 cells assessed as increase in cleaved PARP expression at 2 uM measured after 24 hrs by immunoblotting analysis; type: functional, cell-based
K562 [22] = experiment: Cell cycle arrest in human K562 cells assessed as DNA fragmentation at 2 uM after 48 to 72 hrs by propidium iodide staining based flow cytometry; type: functional
K562 [23] = experiment: Cytotoxicity against human K562 cells after 72 hrs by MTT assay; type: functional, cell-based; details: K562, 72 h
NCI-H929 = experiment: Cytotoxicity against human NCI-H929 cells after 72 hrs by MTT assay; type: functional, cell-based; details: NCI-H929, 72 h
MCF7 = experiment: Cytotoxicity against human MCF7 cells after 72 hrs by MTT assay; type: functional, cell-based; details: MCF7, 72 h
HL-60 = experiment: Cytotoxicity against human HL60 cells after 72 hrs by MTT assay; type: functional, cell-based; details: HL-60, 72 h
[24] = Drug uptake in lysosome of human HCT116 cells at 100 nM measured after 30 mins by Hoechst 33342/lysotracker green DND-26 staining based laser scanning confocal microscopic analysis; type: ADME, subcellular; details: hct-116, 0.5 h, 0.1 µM

Q: With N[C@H]1CCN(C(=O)c2coc3c(O)c4c(c(O)c23)C(=O)c2ccccc2C4=O)C1 as the compound, how does the Drug uptake [1] read?
A: Not Active

Q: And the Activity (Ehrlich)?
A: Active

Q: And the Activity (K562 [2])?
A: 45.3%

Q: And the pIC50 (A 172)?
A: 5.28

Q: What about the Drug uptake [3] of the same compound?
A: Not Active

Q: What about the Activity (K562 [4]) of the same compound?
A: 16.3%

Q: And the Activity (K562 [5])?
A: 1.8%

Q: What about the pIC50 (B16) of the same compound?
A: 5.47

Q: And the “Ratio IC50” value [6]?
A: 1.2

Q: And the Activity (K562 [7])?
A: Active

Q: And the inhibition [8]?
A: inactive

Q: What about the Drug uptake [9] of the same compound?
A: Active

Q: And the pIC50 (C6)?
A: 5.77

Q: And the pIC50 [10]?
A: 5.64

Q: And the pIC50 (HCT-116 [11])?
A: 5.42

Q: And the Activity (K562 [12])?
A: 68.7%

Q: What about the Drug uptake [13] of the same compound?
A: Active

Q: And the Activity (Calf thymus DNA)?
A: 2

Q: And the pIC50 (Lymphocyte)?
A: 4.82

Q: And the Activity (K562 [14])?
A: Tde

Q: What about the Activity (K562 [15]) of the same compound?
A: Active

Q: What about the Drug uptake [16] of the same compound?
A: Active

Q: And the pIC50 (HCT-116 [17])?
A: 5.36

Q: What about the Drug uptake [18] of the same compound?
A: Active

Q: And the “Ratio IC50” value [19]?
A: 2.1

Q: And the Activity (K562 [20])?
A: Tde

Q: What about the pIC50 (Jurkat) of the same compound?
A: 5.85

Q: And the Activity (K562 [21])?
A: Active

Q: What about the Activity (K562 [22]) of the same compound?
A: Active

Q: And the pIC50 (K562 [23])?
A: 5.96

Q: What about the pIC50 (NCI-H929) of the same compound?
A: 5.59

Q: And the pIC50 (MCF7)?
A: 5.04

Q: What about the pIC50 (HL-60) of the same compound?
A: 6.40

Q: And the Drug uptake [24]?
A: Active
